Test [1] addresses T1, RaCYP51-F5 + RaCPR (strain Y-F5/CPR and variants) (Rhizopus delemar, UniProt I1CTV4, F129Y).
T1 construct: gene RO3G_16595; full-length, codon-optimized, C-terminal GGR linker and 6xHis; co-expressed with 6xHis RaCPR in S. cerevisiae ADΔΔ deleted of native ERG11; crude membranes; ~60 kDa; with NADPH--cytochrome P450 reductase
The test can be described thus: inhibition of BOMCC hydrolysis in crude membranes, fluorescence. The test is classed as biochemical.

The target of test [2] is T2, partially purified RaCYP51-F5 (Rhizopus delemar, UniProt I1CTV4).
T2 construct: gene RO3G_16595; full-length, codon-optimized, C-terminal GGR linker and 6xHis; expressed in S. cerevisiae ADΔΔ; Ni-NTA purified from n-decyl-β-D-maltoside extract; ~60 kDa
Briefly: type II difference spectrum (Soret red shift). The class given is binding. The conditions noted are these: 1.0 µM enzyme, 40 µM azole (saturating); heme iron coordination.

The target of test [3] is T3, RaCYP51-F5 + RaCPR (strain Y-F5/CPR and variants) (Rhizopus delemar, UniProt I1CTV4, A291V).
T3 construct: gene RO3G_16595; full-length, codon-optimized, C-terminal GGR linker and 6xHis; co-expressed with 6xHis RaCPR in S. cerevisiae ADΔΔ deleted of native ERG11; crude membranes; ~60 kDa; with NADPH--cytochrome P450 reductase
The test can be described thus: inhibition of BOMCC hydrolysis in crude membranes, fluorescence. The test is classed as biochemical.

Test [4] concerns the target T4, RaCYP51-F5 + RaCPR (strain Y-F5/CPR and variants) (Rhizopus delemar, UniProt I1CTV4, A291V/F129Y).
T4 construct: gene RO3G_16595; full-length, codon-optimized, C-terminal GGR linker and 6xHis; co-expressed with 6xHis RaCPR in S. cerevisiae ADΔΔ deleted of native ERG11; crude membranes; ~60 kDa; with NADPH--cytochrome P450 reductase
Described as above. The class given is biochemical.

The target in test [5] is T5, RaCYP51-F5 + RaCPR (strain Y-F5/CPR and variants) (Rhizopus delemar, UniProt I1CTV4).
T5 construct: gene RO3G_16595
The test can be described thus: biochemical. From the text:
inhibition of BOMCC hydrolysis in crude membranes, fluorescence on RaCYP51-F5 + RaCPR (strain Y-F5/CPR and variants)

The target in test [6] is T6, RaCYP51-F1 + RaCPR (strain Y-F1/CPR) (Rhizopus delemar, UniProt I1CF49).
T6 construct: gene RO3G_11790; full-length, codon-optimized, C-terminal GGR linker and 6xHis; co-expressed with 6xHis RaCPR in S. cerevisiae ADΔΔ deleted of native ERG11; crude membranes; ~60 kDa; with NADPH--cytochrome P450 reductase
The test can be described thus: inhibition of BOMCC hydrolysis in crude membranes, fluorescence. The class given is biochemical.

The structures appear in SMILES notation. Like-named read-outs stand apart in the source and are kept apart here.

T3 sequence (I1CTV4 whole entry, stated change not applied): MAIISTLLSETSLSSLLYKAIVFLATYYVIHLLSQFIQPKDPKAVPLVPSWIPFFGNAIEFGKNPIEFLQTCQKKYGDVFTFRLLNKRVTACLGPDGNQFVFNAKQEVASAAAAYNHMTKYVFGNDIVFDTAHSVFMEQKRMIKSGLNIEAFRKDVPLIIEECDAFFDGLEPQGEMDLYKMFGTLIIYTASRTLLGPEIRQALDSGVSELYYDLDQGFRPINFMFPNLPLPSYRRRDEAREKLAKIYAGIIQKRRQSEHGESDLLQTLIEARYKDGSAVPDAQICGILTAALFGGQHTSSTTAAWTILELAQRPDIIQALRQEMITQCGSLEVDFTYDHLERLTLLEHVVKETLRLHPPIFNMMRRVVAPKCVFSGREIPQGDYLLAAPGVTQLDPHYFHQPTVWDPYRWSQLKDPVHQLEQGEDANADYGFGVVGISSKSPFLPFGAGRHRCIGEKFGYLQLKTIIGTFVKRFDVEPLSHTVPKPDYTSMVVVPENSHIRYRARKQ
T3 sequence (I1CM61 whole entry, stated change not applied, further chain): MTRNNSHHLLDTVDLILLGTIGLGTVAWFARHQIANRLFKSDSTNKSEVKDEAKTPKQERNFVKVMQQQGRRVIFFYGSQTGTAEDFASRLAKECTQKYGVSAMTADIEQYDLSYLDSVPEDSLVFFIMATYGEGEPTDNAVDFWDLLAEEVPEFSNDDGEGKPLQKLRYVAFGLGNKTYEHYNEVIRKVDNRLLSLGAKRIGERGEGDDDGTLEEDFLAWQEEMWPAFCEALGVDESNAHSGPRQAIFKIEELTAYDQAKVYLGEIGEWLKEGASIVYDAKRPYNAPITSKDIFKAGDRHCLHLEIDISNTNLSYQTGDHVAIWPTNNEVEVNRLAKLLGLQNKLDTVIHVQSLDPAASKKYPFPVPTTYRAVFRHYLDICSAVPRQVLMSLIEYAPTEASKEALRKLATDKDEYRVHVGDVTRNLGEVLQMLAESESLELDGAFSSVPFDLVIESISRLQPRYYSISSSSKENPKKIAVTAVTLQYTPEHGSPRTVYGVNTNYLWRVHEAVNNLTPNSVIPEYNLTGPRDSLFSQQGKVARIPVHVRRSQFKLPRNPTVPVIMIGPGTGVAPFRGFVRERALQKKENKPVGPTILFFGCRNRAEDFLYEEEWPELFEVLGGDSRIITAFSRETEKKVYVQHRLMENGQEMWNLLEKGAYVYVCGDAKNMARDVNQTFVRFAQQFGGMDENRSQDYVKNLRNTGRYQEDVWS
T2 sequence (I1CTV4 entry or part of it): as the sequence (I1CTV4 whole entry, stated change not applied) above
T4 sequence (I1CTV4 whole entry, stated change not applied): as above
T4 sequence (I1CM61 whole entry, stated change not applied, further chain): as the sequence (I1CM61 whole entry, stated change not applied, further chain) above
T6 sequence (I1CF49 entry or part of it): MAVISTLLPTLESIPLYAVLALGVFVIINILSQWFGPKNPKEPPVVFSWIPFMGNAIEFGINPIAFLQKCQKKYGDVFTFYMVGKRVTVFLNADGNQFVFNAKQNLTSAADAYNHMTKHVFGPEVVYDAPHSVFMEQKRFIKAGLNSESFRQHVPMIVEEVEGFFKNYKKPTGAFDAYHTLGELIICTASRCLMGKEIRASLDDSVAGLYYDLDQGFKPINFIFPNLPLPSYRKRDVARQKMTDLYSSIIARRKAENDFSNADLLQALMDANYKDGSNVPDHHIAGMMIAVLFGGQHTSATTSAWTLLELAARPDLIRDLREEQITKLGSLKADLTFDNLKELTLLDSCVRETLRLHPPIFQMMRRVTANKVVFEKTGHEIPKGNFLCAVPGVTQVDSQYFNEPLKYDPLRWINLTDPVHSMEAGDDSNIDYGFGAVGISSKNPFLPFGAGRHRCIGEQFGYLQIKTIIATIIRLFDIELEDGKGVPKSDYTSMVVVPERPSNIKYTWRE
T6 sequence (I1CM61 entry or part of it, further chain): as the sequence (I1CM61 whole entry, stated change not applied, further chain) above

With `CC[C@@H]([C@H](C)O)n1ncn(-c2ccc(N3CCN(c4ccc(OC[C@@H]5CO[C@@](Cn6cncn6)(c6ccc(F)cc6F)C5)cc4)CC3)cc2)c1=O` [posaconazole], the IC50 stood at 75 ± 35 nM in test [1]; 55 ± 7 nM in test [3]; 63 nM in test [4]; 56 ± 28 nM in test [5]; 21 ± 11 nM in test [6] (read-out: Posaconazole IC50). Moreover, the “type II difference spectrum (Soret red shift)” value in test [2] is listed as “bound posaconazole or voriconazole upon exposure to saturating levels of these drugs”.

For the compound `C[C@@H](c1ncncc1F)[C@](O)(Cn1cncn1)c1ccc(F)cc1F` [voriconazole], the IC50 was 140 ± 57 nM in test [1]; 500 nM in test [3]; 60 ± 14 nM in test [4]; greater than 1000 nM in test [5]; 100 ± 70 nM in test [6] (read-out: Voriconazole IC50). Further, the “type II difference spectrum (Soret red shift)” value in test [2] is given as “bound posaconazole or voriconazole upon exposure to saturating levels of these drugs”.

The IC50 is the midpoint of a concentration-inhibition curve.

The record behind these values is PMC12777571, “The molecular basis of intrinsic resistance to azoles in Rhizopus arrhizus” (Antimicrobial Agents and Chemotherapy, 2025).
